Assay results: patent US9895342B2, “Cannabinoids for use in the treatment of neuropathic pain” (GW Pharma Limited, priority 2011, dated 2018)

Experiments:
SNI mice [1] = assay: Thermal hyperalgesia (Plantar Test Apparatus, paw withdrawal latency) in spared nerve injury mice; format: in vivo; conditions: for dose-dependence of effect on thermal withdrawal latency: 2.5 vs 5 mg/kg; for ability to treat neuropathic pain compared with CBD: thermal withdrawal data
Protocol: (§1) Peripheral neuropathic pain is produced by multiple etiological factors that initiate a number of diverse mechanisms at different sites and in different disease states. Spared nerve injury (SNI) consists of partial ligation and transaction of the sciatic nerve which evolves in neuropathic pain whose typical manifestations are represented by thermal hyperalgesia and tactile allodynia.
(§2) Chronic pain symptoms are measured through changes in thermoceptive responses (which is indicative of thermal hyperalgesia) using Plantar Test Apparatus (Ugo Basile, Varese, Italy) and in mechanical paw withdrawal threshold (which is indicative of mechanical allodynia) by a Dynamic Plantar Aesthesiometer (Ugo Basile, Varese, Italy). Nociceptive responses were measured before and after surgery in groups of mice differently treated (vehicle or drugs different combinations).
(§3) The cannabinoids tested were CBG, CBC, CBDV, and THCV. […] The cannabinoids were prepared from whole plant extracts of cannabis plants which had been purified. The cannabinoids were dissolved in ringer/0.5% dimethyl sulfoxide (DMSO), for intraperitoneal (i.p.) administration.
(§4) Male CD-1 mice (35-40 g) were housed, 3 per cage, under controlled illumination (12:12 h light:dark cycle; light on 06.00 h) and environmental conditions (room temperature 20-22° C., humidity 55-60%) for at least 1 week before the commencement of experiments. Mouse chow and tap water were available ad libitum. The experimental procedures were approved by the Ethic Committee of the Second University of Naples. Animal care was in compliance with the IASP and European Community (E.C. L358/1 18/12/86) guidelines on the use and protection of animals in experimental research. All efforts were made to minimize animal suffering and to reduce the number of animals used.
(§5) Behavioural testing was performed before surgery to establish a baseline for comparison with post-surgical values. Mononeuropathy was induced according to the method of Bourquin and Decosterd (2006).
(§6) Mice were anaesthetized with sodium pentobarbital (60 mg/kg i.p.). The right hindlimb was immobilized in a lateral position and slightly elevated. Incision was made at mid-thigh level using the femur as a landmark. The sciatic nerve was exposed at mid-thigh level distal to the trifurcation and freed of connective tissue; the three peripheral branches (sural, common peroneal, and tibial nerves) of the sciatic nerve were exposed without stretching nerve structures.
(§7) Both tibial and common peroneal nerves were ligated and transacted together. A micro-surgical forceps with curved tips was delicately placed below the tibial and common peroneal nerves to slide the thread (5.0 silk, Ethicon, Johnson, and Johnson Intl, Brussels, Belgium) around the nerves. A tight ligation of both nerves was performed. The sural nerve was carefully preserved by avoiding any nerve stretch or nerve contact with surgical tools. Muscle and skin were closed in two distinct layers with silk 5.0 sutures.
(§8) Intense, reproducible and long-lasting thermal hyperalgesia and mechanical allodynia-like behaviors are measurable in the non-injured sural nerve skin territory. The SNI model offers the advantage of a distinct anatomical distribution with an absence of co-mingling of injured and non-injured nerve fibers distal to the lesion such as the injured and non-injured nerves and territories can be readily identified and manipulated for further analysis (i.e. behavioral assessment).
(§9) The sham procedure consisted of the same surgery without ligation and transection of the nerves.
(§10) The groups of mice were divided as follows, each cannabinoid tested has its own group of mice:
(§11) The cannabinoids were dosed daily for 14 days. Doses for all cannabinoids tested were: 2.5 and 5.0 mg/Kg. Vehicle solution was 0.5% DMSO in ringer solution.
Thermal hyperalgesia was evaluated by using a Plantar Test Apparatus (Ugo Basile, Varese, Italy). […]

SNI mice [2] = assay: Mechanical allodynia (Dynamic Plantar Aesthesiometer, paw withdrawal threshold) in spared nerve injury mice; format: in vivo; conditions: for MECHANICAL WITHDRAWAL THRESHOLD: SNI mice; for overall efficacy, mechanical withdrawal: both of the doses tested (2.5 and 5 mg/kg); for ability to treat neuropathic pain compared with CBD: mechanical withdrawal data; for mechanical withdrawal, course over time: 5.0 mg/kg, day 7 to day 14
Protocol: as §1, §2, §3, §4, §5, §6, §7, §8, §9, §10, §11
Mechanical allodynia was measured by using Dynamic Plantar Anesthesiometer (Ugo Basile, Varese, Italy). […]

patients = conditions: cited from earlier work
[3] = tested on: chronic constriction injury of the rat sciatic nerve; conditions: administered as a purified compound; Costa et al., 2004; cited from earlier work
[4] = SNI mice, 2.5 mg/kg i.p. daily, DAY 3
[5] = SNI mice, 2.5 mg/kg i.p. daily, DAY 7
[6] = SNI mice, 2.5 mg/kg i.p. daily, DAY 14
[7] = SNI mice, 5 mg/kg i.p. daily, DAY 3
[8] = SNI mice, 5 mg/kg i.p. daily, DAY 7
[9] = SNI mice, 5 mg/kg i.p. daily, DAY 14

Structure (SMILES) | overall efficacy, thermal withdrawal (SNI mice [1]; 2.5 mg/kg) | overall efficacy, thermal withdrawal (SNI mice [1]; 5.0 mg/kg) | THERMAL WITHDRAWAL LATENCY (SNI mice [1]; 5.0 mg/kg, 14 days) | dose-dependence of effect on thermal withdrawal latency (SNI mice [1]) | THERMAL WITHDRAWAL LATENCY (SNI mice [1]; [4]) [s] | THERMAL WITHDRAWAL LATENCY (SNI mice [1]; [5]) [s] | THERMAL WITHDRAWAL LATENCY (SNI mice [1]; [6]) [s] | THERMAL WITHDRAWAL LATENCY (SNI mice [1]; [7]) [s] | THERMAL WITHDRAWAL LATENCY (SNI mice [1]; [8]) [s] | THERMAL WITHDRAWAL LATENCY (SNI mice [1]; [9]) [s] | ability to treat neuropathic pain compared with CBD (SNI mice [1]) | MECHANICAL WITHDRAWAL THRESHOLD (SNI mice [2]; 2.5 mg/kg i.p. daily, DAY 3) [g] | MECHANICAL WITHDRAWAL THRESHOLD (SNI mice [2]; 2.5 mg/kg i.p. daily, DAY 7) [g] | MECHANICAL WITHDRAWAL THRESHOLD (SNI mice [2]; 2.5 mg/kg i.p. daily, DAY 14) [g] | MECHANICAL WITHDRAWAL THRESHOLD (SNI mice [2]; 5 mg/kg i.p. daily, DAY 3) [g] | MECHANICAL WITHDRAWAL THRESHOLD (SNI mice [2]; 5 mg/kg i.p. daily, DAY 7) [g] | MECHANICAL WITHDRAWAL THRESHOLD (SNI mice [2]; 5 mg/kg i.p. daily, DAY 14) [g] | overall efficacy, mechanical withdrawal (SNI mice [2]) | ability to treat neuropathic pain compared with CBD (SNI mice [2]) | THERMAL WITHDRAWAL LATENCY (SNI mice [1]; 5.0 mg/kg, day 3) | also measured
CCCc1cc(O)c2c(c1)OC(C)(C)[C@@H]1CCC(C)=C[C@@H]21 [THCV, tetrahydrocannabivarin] | good efficacy | most effective | large increase | do not appear to be dose-dependent | 3.8 | 9.8 | 7.6 | 3.9 | 10.5 | 11.9 | superior to CBD | 3.0 | 6.2 | 7.5 | 3.2 | 8.5 | 9.8 | good efficacy | superior to CBD | – | thermal withdrawal latency, course over time (SNI mice [1]; 2.5 mg/kg, day 7 to day 14): large increase at the day 7 time point which then decreases after a further 7 days
NC(=O)N1c2ccccc2C=Cc2ccccc21 [carbamezepine] | – | – | – | – | – | – | – | – | – | – | – | – | – | – | – | – | – | – | – | – | decrease in white blood cell count (patients; in 7% of patients): 25%; increase in the risk of blood dyscrasias (patients; post-marketing studies, patients taking carbamezepine): five- to eight-fold
CCCCCc1cc(O)c2c(c1)OC(C)(CCC=C(C)C)C=C2 (stereo not drawn) [CBC, cannabichromene] | relatively ineffective | – | – | do not appear to be dose-dependent | 3.7 | 4.8 | 5.2 | 6.0 | 7.0 | 7.2 | – | 2.4 | 4.5 | 5.0 | 5.1 | 9.7 | 5.2 | relatively ineffective | – | able to increase the amount of time before the animal withdrew its paw | mechanical withdrawal, course over time (SNI mice [2]): large increase at day 7; however this latency decreased again at the 14 day time point
CCCCCc1cc(O)c(C/C=C(\C)CCC=C(C)C)c(O)c1 [CBG, cannabigerol] | highest thermal withdrawal latency of all the cannabinoids | – | – | do not appear to be dose-dependent | 5.5 | 5.4 | 7.0 | 7.8 | 7.6 | 7.5 | superior to CBD | 3.4 | 6.1 | 7.8 | 6.0 | 6.1 | 7.8 | good efficacy | superior to CBD | able to increase the amount of time before the animal withdrew its paw | THERMAL WITHDRAWAL LATENCY (SNI mice [1]; 2.5 mg/kg, day 3): increase in the amount of thermal withdrawal latency
C=C(C)[C@@H]1CCC(C)=C[C@H]1c1c(O)cc(CCC)cc1O [CBDV, cannabidivarin] | good efficacy | most effective | large increase | dose-dependent effects were observed | 3.8 | 6.4 | 6.5 | 4.0 | 7.2 | 11.0 | superior to CBD | 6.8 | 7.0 | 7.8 | 6.7 | 6.6 | 7.7 | highest mechanical withdrawal latency of all the cannabinoids | superior to CBD | – | mechanical withdrawal latency (SNI mice [2]; 2.5 mg/kg, day 3): dramatic increase
C=C(C)[C@@H]1CCC(C)=C[C@H]1c1c(O)cc(CCCCC)cc1O [CBD, cannabidiol, reference compound] | relatively ineffective | – | – | do not appear to be dose-dependent | 3.5 | 4.2 | 5.6 | 5.8 | 7.0 | 7.5 | – | 2.2 | 4.8 | 5.2 | 5.0 | 8.6 | 5.3 | relatively ineffective | – | able to increase the amount of time before the animal withdrew its paw | relief of neuropathic pain [3]: can partially relieve neuropathic pain; mechanical withdrawal, course over time (SNI mice [2]): large increase at day 7; however this latency decreased again at the 14 day time point
